One assay concerns IL-6. As to the kind of experiment: IL-6 secretion assay in human PBMCs (LPS, ELISA). The format is cell-based. Conditions: read-out: Inhibitory Activity EC50, IL6. The procedure: Fetal bovine serum (FBS) was obtained from ThermoFisher (Cat #16000044). • Other reagents: 96 well TC plates were obtained from ThermoFisher (Cat #07-2000-90). LPS was obtained from Sigma (Cat #L3024).
IL-6 was assessed using a standard ELISA protocol. Cryopreserved PBMCs were thawed in a water bath and transferred to 50 mL polypropylene tubes. The cells were washed two times with 25 mL of RPMI medium supplemented with 5% of heat-inactivated FBS and re-suspended at a density of 4.5^^6 cells/mL. The cells were plated into 96 well TC late (100 uL/well). Serially diluted compound was added to the cells in duplicate wells for each concentration. Control wells received DMSO only (0.3% final). The cells were pre-incubated with compound for 1 hr. After pre-incubation, the cells were stimulated by LPS (100 ng/mL) for 6 hr. Control samples with and without LPS in the absence of compound were assembled in each test plate. IL-6 was detected in media supernatants by using a sandwich anti-IL-6 ELISA kit (BD Biosciences) according to protocol provided by the manufacturer. ELISA readout (optical density at 450 nm) is commensurable with the amount of IL-6 produced by the cells. Assay window was determined in each experiment by comparing average OD450 values in stimulated and un-stimulated samples in the absence of compound. ELISA calibration was performed in each detection plate using serially diluted recombinant human IL-6, to ensure that OD450 values for all test samples were within linear range of detection.%-Inhibition by compound was calculated using following equation.
where OD450100% is optical density in control samples stimulated with LPS without compound, OD4500% is optical density in unstimulated control samples, and OD450compound is optical density in a sample stimulated with LPS in the presence of compound.
The calculated %-Inh values were plotted against compound concentration. To determine IC50 values, dose-response curves were fitted by a 4-parameter sigmoid inhibition model using XLFit® software (IDBS).

The target in another assay is T1, recombinant human LOX-5 (Homo sapiens, UniProt P09917).
T1 construct: expressed in insect cells (Amino Acids 1-674) was obtained from Cayman; purchased Cayman 60402; host or cells: insect cells
T1 sequence (P09917 1-674): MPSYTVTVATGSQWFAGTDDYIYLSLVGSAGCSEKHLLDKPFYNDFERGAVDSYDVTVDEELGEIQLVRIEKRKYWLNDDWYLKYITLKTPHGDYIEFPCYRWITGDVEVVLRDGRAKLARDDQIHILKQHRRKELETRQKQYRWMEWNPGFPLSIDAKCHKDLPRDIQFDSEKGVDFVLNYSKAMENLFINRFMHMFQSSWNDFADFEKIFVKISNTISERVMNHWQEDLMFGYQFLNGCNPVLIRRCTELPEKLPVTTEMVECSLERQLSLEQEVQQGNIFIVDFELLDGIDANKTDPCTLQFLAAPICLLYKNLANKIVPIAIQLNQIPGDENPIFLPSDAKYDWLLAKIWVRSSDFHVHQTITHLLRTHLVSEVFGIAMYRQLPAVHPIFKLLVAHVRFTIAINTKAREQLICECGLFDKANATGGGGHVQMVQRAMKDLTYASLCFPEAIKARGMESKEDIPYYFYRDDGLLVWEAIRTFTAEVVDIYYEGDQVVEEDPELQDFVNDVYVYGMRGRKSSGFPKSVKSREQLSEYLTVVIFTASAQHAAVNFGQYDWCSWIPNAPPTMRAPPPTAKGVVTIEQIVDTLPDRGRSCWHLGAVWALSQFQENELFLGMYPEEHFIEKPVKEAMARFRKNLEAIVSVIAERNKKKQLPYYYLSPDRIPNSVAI
As to the kind of experiment: Biochemical LOX-5 assay. The protocol:
The LOX-5 assay was performed in assay buffer comprising: 50 mM Tris (pH 7.5), 2 mM EDTA, 2 mM CaCl2), 3 uM AA, 10 uM ATP, 10 uM H2DCFDA, and recombinant enzyme (50 mU per 20 ul reaction, as defined by manufacturer). Serially diluted compounds were prepared in DMSO in Echo qualified 384 well plates. An assay buffer was then prepared without AA and ATP supplemented with 20 uM H2DCFDA. 10 uL of the supplemented buffer was dispensed into control (no enzyme) wells in the black 384 well assay plate. Next, a 2× enzyme solution was prepared, comprising 100 mU LOX-5 enzyme in the supplemented assay buffer. 10 uL of the 2× enzyme solution was then dispensed into test wells in the black 384 well assay plate. Serially diluted compounds were added to the assay plate by acoustic dispensing (Labcyte 550). Control wells received DMSO only.
Next, the 2× substrate was prepared to comprise 6 uM arachidonic acid and 20 uM ATP in the assay buffer. 10 uL of the 2× substrate was then added to all wells in the assay plate. The plate was incubated for 20 min.
[formula] • where RFU100% is fluorescence in control samples without compound, RFU0% is fluorescence in control samples without LOX-5, and RFUcompound fluorescence in a sample with compound.
The calculated %-Inh values were plotted against compound concentration. To determine EC50 values, dose-response curves were fitted by a 4-parameter sigmoid inhibition model using XLFit® software (IDBS).

Setting [1] is: PBMC, human PBMCs, LPS 100 ng/mL 6 hr.
The mark [2] stands for this setting: recombinant enzyme, read-out: Inhibitory Activity EC50, 5-Lox.

Read-outs that look alike come from different tables or passages of the source.

The text below walks through data of US20250073184A1, “CANNABIGEROQUINONE COMPOUNDS, COMPOSITIONS INCLUDING SUCH COMPOUNDS, AND USES OF SUCH COMPOUNDS AND COMPOSITIONS” (Juva Life, Inc., priority 2021, published 2025).

The EC50 is the concentration giving half of the maximal effect.

Turning to `CCCCCc1cc(OC(C)=O)c(C/C=C(\C)CCC=C(C)C)c(O)c1OC(C)=O` [Formula XLIII], the EC50 in the assay with IL-6 (setting [1]) is over 10 µM; on recombinant human LOX-5 it was 0.34 µM.

With `CCCCCc1cc(OC)c(C/C=C(\C)CCC=C(C)C)c(O)c1OC` [Formula XLII], the EC50 in the assay with IL-6 (setting [1]) was over 10 µM; on recombinant human LOX-5, 0.21 µM.

Take `CCCCCC1=C(NC)C(=O)C(C/C=C(\C)CCC=C(C)C)=C(O)C1=O` [Formula XLI]: the 50% effective concentration (EC50) is over 10 µM in the assay with IL-6 (setting [1]) and 0.48 µM on recombinant human LOX-5.

Turning to `CCCCCc1cc(O)c(C/C=C(\C)CCC=C(C)C)c(O)c1O` [Formula XXXIX], the EC50 is over 10 µM with IL-6 (Homo sapiens, PBMC, 6 h) and 0.2 µM at recombinant human LOX-5 (setting [2]).

Cannabigerol Quinone [Formula VI]: the EC50 with IL-6 (human PBMCs, LPS 100 ng/mL 6 hr) amounted to 17.9 µM; on recombinant human LOX-5 (setting [2]) it was 0.27 µM. Besides, the “stronger inhibition for 5-Lox compared to Cox-2” value at recombinant human LOX-5 is “over 200 fold”.
